Test results as given in paper PMC4548482 (Neuropharmacology, 2015).

Assays:
[1] = molecular target: T1, α7 L247T nAChRs (Homo sapiens, UniProt P36544, L270T); assay: Two-electrode voltage-clamp recording, human α7 nAChRs containing the L247T mutation in Xenopus oocytes; type: cell-based; conditions: α7 L247T; for nH (Hill coefficient) / EC50: mean ± SEM; for EC50: read-out: EC50 (agonist); for Imax: normalised to the maximum response to acetylcholine
T1 construct: expressed in transfected cells; host or cells: Xenopus laevis oocytes (cRNA injection)
Experimental: (§1) Site-directed mutagenesis was performed on human nAChR α7 subunit cDNA in plasmid pSP64GL using the QuikChange mutagenesis kit (Stratagene) and verified by nucleotide sequencing. Plasmid pSP64GL containing wild-type or mutated human α7 cDNA was linearized with BamHI and purified with QIAQuik PCR purification kit (Qiagen). In vitro synthesis of cRNA was performed using mMessage mMachine SP6 transcription kit (Life Technologies).
(§2) Oocytes were isolated from adult female Xenopus laevis following procedures that have been approved by UCL's Biological Services Management Group and the UK Home Office. […] Heterologous expression was achieved by injection of wild-type or mutated α7 cRNA (6–12 ng) into oocyte cytoplasm. Oocytes were injected in a volume of 20–30 nl using a Drummond variable volume microinjector. […] Experiments were performed on oocytes after 3–5 days of incubation.

[2] = molecular target: T2, human α4β2 nAChRs (Homo sapiens, UniProt P17787+P43681); assay: Two-electrode voltage-clamp recording, human α4β2 nAChRs in Xenopus oocytes; type: cell-based; design: concentration or dose not given beside the values; conditions: inhibition of agonist-evoked responses, mean ± SEM
T2 construct: expressed in transfected cells; host or cells: Xenopus laevis oocytes
From the text: (§3) All plasmid constructs used in this study have been described previously. These include plasmids containing cDNAs encoding human α3, α4, α7, β2 and β4 nAChR subunits in pSP64GL ([Broadbent et al., 2006]); rat α7 nAChR subunit in pcDNA3 ([Cooper and Millar, 1997]); α7/5-HT3A subunit chimera (containing the rat α7 N-terminal domain and mouse 5-HT3A transmembrane and C-terminal domain) in pcDNA3 ([Cooper and Millar, 1998]); human RIC-3 in pRK5 ([Lansdell et al., 2005]) and mouse 5-HT3A ([Maricq et al., 1991]) in pRK5.
(§4) Oocytes were isolated from adult female Xenopus laevis following procedures that have been approved by UCL's Biological Services Management Group and the UK Home Office. Oocytes were defolliculated as described previously ([Young et al., 2007]) by treatment with collagenase (2 mg/ml; Worthington Biochemicals, Freehold, NJ) in calcium-free Barth's solution containing 88 mM NaCl, 2.4 mM NaHCO3, 1 mM KCl, 0.82 mM MgSO4, and 15 mM Tris, pH 7.5. Heterologous expression was achieved by injection of wild-type or mutated α7 cRNA (6–12 ng) into oocyte cytoplasm. Oocytes were injected in a volume of 20–30 nl using a Drummond variable volume microinjector. After injection, oocytes were incubated at 18 °C in a calcium-containing Barth's solution (composition, as above, but with 0.77 mM CaCl2) supplemented with antibiotics (100 units/ml penicillin, 100 μg/ml streptomycin, 4 μg/ml kanamycin, and 50 μg/ml tetracycline). Experiments were performed on oocytes after 3–5 days of incubation. […] Two-electrode voltage-clamp recordings were performed (with the oocyte membrane potential held at −60 mV), as described previously ([Gill et al., 2012; Young et al., 2007]).

[3] = molecular target: T3, rat α7 nAChRs (Rattus norvegicus, UniProt Q05941); assay: Two-electrode voltage-clamp recording, rat α7 nAChRs in Xenopus oocytes; type: cell-based; conditions: mean ± SEM
T3 construct: expressed in transfected cells; host or cells: Xenopus laevis oocytes
From the text: as §3, §4

[4] = molecular target: T4, human α3β4 nAChRs (Homo sapiens, UniProt P30926+P32297); assay: Two-electrode voltage-clamp recording, human α3β4 nAChRs in Xenopus oocytes; type: cell-based; design: concentration or dose not given beside the values; conditions: inhibition of agonist-evoked responses, mean ± SEM
T4 construct: expressed in transfected cells; host or cells: Xenopus laevis oocytes
From the text: as §3, §4

[5] = molecular target: T5, α7 M260L nAChRs (Homo sapiens, UniProt P36544, M283L); assay: Two-electrode voltage-clamp recording, human α7 nAChRs containing the M260L mutation in Xenopus oocytes; type: cell-based; conditions: for Fold potentiation (maximum peak response compared to acetylcholine alone): acetylcholine 100 μM, pre- and co-application of modulator (10 μM); for Agonist effect on M260L receptors: compound applied alone; for Imax: normalised to the maximum response to acetylcholine
T5 construct: expressed in transfected cells; host or cells: Xenopus laevis oocytes (cRNA injection)
Experimental: as §1, §2

[6] = molecular target: T6, human α7 nAChRs (Homo sapiens, UniProt P36544); type: binding; conditions: [3H]-α-bungarotoxin 1 nM; tsA201 cells
T6 construct: expressed in transfected cells; host or cells: Xenopus laevis oocytes (cRNA injection)

[7] = molecular target: T7, α7/5-HT3A subunit chimera (rat α7 N-terminal domain, mouse 5-HT3A transmembrane and C-terminal domain) (UniProt P23979+Q05941, M226I/T225I); assay: Two-electrode voltage-clamp recording, α7/5-HT3A subunit chimera in Xenopus oocytes; type: cell-based; design: concentration or dose not given beside the values; conditions: α7/5-HT3A chimera; inhibition of agonist-evoked responses; mean ± SEM
T7 construct: containing the extracellular/N-terminal domain of the rat α7 nAChR subunit; the transmembrane/C-terminal domain of the mouse 5-HT3A subunit; expressed in transfected cells; host or cells: Xenopus laevis oocytes
From the text: as §3, §4

[8] = molecular target: T6, human α7 nAChRs; assay: Two-electrode voltage-clamp recording, wild-type human α7 nAChRs expressed in Xenopus oocytes; type: cell-based; conditions: for Fold potentiation: Human α7, maximum fold potentiation of responses to an EC50 of acetylcholine (100 μM), mean ± SEM; for Imax: Wild-type α7, normalised to the maximum response to acetylcholine; for Effect on rate of desensitisation of acetylcholine-evoked responses: wild-type α7, acetylcholine 100 μM, pre- and co-application of PAM; for Desensitisation after receptor reactivation: acetylcholine co-applied with compound, period of 30 s; for Total net charge transfer relative to initial application of acetylcholine alone: measured during a 30 s application of compound in continued presence of acetylcholine (100 μM)
Experimental: All plasmid constructs used in this study have been described previously.
as §2

[9] = molecular target: T8, mouse 5-HT3A (Mus musculus, UniProt P23979); assay: Two-electrode voltage-clamp recording, mouse 5-HT3ARs in Xenopus oocytes; type: cell-based; design: concentration or dose not given beside the values; conditions: inhibition of agonist-evoked responses, mean ± SEM
T8 construct: expressed in transfected cells; host or cells: Xenopus laevis oocytes
T8 sequence (P23979 24-489): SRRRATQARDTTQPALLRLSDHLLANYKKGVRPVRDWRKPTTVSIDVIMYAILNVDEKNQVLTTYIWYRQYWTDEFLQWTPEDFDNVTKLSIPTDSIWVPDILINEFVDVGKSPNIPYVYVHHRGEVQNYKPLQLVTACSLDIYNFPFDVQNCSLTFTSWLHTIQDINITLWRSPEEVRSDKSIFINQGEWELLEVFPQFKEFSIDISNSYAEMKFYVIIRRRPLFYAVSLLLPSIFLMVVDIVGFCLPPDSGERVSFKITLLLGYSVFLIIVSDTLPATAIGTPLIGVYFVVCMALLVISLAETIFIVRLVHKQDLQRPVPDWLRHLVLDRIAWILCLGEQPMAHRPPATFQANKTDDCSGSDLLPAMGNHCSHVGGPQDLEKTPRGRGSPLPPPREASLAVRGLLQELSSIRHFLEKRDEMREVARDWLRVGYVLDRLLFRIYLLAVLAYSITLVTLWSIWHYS
From the text: as §3, §4

[10] = M260L α7, type I PAM 10 μM pre-applied for 10 s then co-applied, n = 3
[11] = wild-type α7 desensitised by continued acetylcholine (100 μM), compound 10 μM

T2 sequence (P43681 29-627 limits assumed): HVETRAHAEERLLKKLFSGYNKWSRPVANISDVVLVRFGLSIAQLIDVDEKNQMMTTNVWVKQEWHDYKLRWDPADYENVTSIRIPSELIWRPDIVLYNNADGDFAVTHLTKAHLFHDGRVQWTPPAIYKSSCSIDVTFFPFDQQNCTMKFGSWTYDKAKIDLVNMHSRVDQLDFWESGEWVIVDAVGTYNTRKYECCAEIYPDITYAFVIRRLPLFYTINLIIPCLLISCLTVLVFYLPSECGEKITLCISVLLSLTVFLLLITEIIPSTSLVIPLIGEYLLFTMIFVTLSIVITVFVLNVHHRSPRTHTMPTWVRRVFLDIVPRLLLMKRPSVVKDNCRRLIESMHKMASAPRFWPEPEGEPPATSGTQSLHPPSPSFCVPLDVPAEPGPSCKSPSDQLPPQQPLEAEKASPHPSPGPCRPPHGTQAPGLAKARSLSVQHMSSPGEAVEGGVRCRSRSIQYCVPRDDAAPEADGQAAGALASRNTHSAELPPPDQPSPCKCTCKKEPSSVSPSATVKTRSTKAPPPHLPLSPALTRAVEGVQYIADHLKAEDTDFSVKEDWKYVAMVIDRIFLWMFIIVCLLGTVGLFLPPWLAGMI
T2 sequence (P17787 26-502): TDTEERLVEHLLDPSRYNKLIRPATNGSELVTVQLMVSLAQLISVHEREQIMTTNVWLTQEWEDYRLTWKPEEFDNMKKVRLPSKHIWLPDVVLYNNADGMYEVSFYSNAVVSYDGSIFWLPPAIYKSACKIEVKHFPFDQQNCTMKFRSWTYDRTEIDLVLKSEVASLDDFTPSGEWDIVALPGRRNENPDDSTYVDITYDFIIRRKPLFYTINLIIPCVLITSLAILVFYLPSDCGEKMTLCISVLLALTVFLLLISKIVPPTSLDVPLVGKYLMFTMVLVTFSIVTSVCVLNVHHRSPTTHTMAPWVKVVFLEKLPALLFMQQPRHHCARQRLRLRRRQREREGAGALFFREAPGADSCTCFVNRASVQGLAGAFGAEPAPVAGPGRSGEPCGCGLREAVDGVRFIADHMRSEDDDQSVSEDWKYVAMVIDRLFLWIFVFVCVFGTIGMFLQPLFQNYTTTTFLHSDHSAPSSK
T6 sequence (P36544 23-502): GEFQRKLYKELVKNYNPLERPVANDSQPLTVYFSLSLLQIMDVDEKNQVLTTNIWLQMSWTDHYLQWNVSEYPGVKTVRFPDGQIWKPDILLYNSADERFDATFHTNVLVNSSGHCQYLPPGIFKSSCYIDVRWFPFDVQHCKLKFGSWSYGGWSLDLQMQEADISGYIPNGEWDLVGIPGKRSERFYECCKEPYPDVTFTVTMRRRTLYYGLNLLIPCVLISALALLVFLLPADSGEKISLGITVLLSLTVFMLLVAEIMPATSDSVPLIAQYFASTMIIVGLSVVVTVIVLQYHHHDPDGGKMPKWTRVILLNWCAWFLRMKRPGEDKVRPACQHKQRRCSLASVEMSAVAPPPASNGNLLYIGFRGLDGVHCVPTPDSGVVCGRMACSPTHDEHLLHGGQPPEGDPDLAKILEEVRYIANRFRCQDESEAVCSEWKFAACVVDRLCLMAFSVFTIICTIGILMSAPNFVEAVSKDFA
T5 sequence (P36544 23-502 M283L): as the sequence (P36544 23-502) above, with M261L counted along it
T4 sequence (P32297 32-505): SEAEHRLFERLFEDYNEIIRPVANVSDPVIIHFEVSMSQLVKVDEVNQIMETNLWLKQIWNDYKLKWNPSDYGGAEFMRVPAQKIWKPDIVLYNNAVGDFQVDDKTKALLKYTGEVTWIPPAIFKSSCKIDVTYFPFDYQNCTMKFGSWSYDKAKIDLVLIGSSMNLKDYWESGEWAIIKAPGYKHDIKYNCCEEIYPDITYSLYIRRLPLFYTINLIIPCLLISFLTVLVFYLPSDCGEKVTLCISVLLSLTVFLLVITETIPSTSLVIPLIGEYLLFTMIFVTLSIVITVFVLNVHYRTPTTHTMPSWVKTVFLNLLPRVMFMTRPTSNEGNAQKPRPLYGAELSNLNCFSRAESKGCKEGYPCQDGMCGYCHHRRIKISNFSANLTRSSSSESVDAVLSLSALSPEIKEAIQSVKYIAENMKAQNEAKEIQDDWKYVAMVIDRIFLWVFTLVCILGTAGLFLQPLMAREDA
T4 sequence (P30926 22-498): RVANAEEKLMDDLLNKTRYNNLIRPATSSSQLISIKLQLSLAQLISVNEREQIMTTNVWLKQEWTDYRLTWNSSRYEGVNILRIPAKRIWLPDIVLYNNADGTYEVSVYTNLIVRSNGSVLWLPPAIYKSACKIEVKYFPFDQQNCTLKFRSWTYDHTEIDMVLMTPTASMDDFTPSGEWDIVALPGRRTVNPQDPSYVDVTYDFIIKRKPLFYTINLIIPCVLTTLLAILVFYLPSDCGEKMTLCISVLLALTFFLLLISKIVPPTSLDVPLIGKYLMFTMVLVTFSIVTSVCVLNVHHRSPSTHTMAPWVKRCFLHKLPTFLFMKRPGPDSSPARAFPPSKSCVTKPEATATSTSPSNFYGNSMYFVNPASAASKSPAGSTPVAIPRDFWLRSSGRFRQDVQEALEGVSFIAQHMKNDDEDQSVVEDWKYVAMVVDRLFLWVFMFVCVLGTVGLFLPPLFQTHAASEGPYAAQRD
T1 sequence (P36544 23-502 L270T): as the sequence (P36544 23-502) above, with L248T counted along it
T3 sequence (Q05941 23-502): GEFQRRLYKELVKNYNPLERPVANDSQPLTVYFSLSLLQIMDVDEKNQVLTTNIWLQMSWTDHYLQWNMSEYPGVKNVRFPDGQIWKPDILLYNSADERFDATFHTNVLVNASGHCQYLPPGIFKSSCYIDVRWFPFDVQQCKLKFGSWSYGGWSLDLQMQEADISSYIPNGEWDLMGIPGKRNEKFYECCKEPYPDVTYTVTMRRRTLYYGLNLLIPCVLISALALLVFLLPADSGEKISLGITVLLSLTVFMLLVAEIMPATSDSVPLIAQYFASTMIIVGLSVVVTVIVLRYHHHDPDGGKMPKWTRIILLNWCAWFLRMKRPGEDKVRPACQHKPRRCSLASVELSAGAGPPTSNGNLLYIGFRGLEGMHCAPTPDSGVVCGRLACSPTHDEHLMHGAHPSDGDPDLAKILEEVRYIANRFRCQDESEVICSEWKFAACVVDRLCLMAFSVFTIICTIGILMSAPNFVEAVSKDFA
T7 sequence (Q05941+P23979 fused Q05941:T225I/Q05941:M226I): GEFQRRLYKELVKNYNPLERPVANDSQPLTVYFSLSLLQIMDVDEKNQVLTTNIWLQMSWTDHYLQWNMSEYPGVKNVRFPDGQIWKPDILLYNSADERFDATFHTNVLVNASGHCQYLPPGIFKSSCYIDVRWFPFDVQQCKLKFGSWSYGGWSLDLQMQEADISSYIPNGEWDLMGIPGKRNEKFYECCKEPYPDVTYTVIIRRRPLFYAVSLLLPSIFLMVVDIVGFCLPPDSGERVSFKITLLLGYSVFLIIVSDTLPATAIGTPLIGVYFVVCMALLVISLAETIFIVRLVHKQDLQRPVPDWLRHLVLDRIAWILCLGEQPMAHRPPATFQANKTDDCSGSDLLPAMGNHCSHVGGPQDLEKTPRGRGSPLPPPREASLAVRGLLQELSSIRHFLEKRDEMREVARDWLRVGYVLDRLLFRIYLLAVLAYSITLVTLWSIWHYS

| Structure (SMILES) | nH (Hill coefficient) [1] | EC50 [1] | Imax [1] | % Inhibition [2] | Fold potentiation [3] | % Inhibition [4] | Fold potentiation (maximum peak response compared to acetylcholine alone) ([5]; M260L α7) | Agonist effect on M260L receptors [5] | Imax ([5]; α7 M260L) | melting point | Displacement of [3H]-α-bungarotoxin binding [6] | % Inhibition [7] | Fold potentiation [8] | Imax [8] | Effect on rate of desensitisation of acetylcholine-evoked responses [8] | Recovery from desensitisation (reactivation of desensitised receptors) [8, 11] | % Inhibition [9] | Desensitisation after receptor reactivation [8] | Total net charge transfer relative to initial application of acetylcholine alone [8] | other results |
| --- | --- | --- | --- | --- | --- | --- | --- | --- | --- | --- | --- | --- | --- | --- | --- | --- | --- | --- | --- | --- |
| COc1ccc(-c2nc(-c3ccc(Br)cc3)nn2-c2ccc(S(N)(=O)=O)cc2)cc1 [TBS-346, 4-(3-(4-bromophenyl)-5-(4-methoxyphenyl)-1H-1,2,4-triazol-1-yl)benzenesulfonamide] | 1.7 ± 0.3 | 0.1 ± 0.04 µM | 0.9 ± 0.1 | 23.1 ± 5.7% | 8.7 ± 5.3 fold | 68.4 ± 3.0% | 2.8 ± 0.6 fold | no agonist effect | 0.0 ± 0.0 | 290 to 294 °C | no significant displacement | 13.4 ± 7.7% | 10.5 ± 2.5 fold | 0.0 ± 0.0 | minimal changes to desensitisation | no detectable responses | 30.8 ± 15.5% |  |  | Block of agonist responses to TBS-516 (10 μM) [5, 10]: 83.4 ± 4.1%; Block of agonist responses to TQS (10 μM) [5, 10]: 95.7 ± 1.1% |
| NS(=O)(=O)c1ccc(-n2nc(-c3ccc(Br)cc3)nc2Cc2ccccc2)cc1 [TBS-516, 4-(5-benzyl-3-(4-bromophenyl)-1H-1,2,4-triazol-1-yl)benzenesulfonamide] | 2.5 ± 0.3 | 0.2 ± 0.04 µM | 1.1 ± 0.1 | 1.7 ± 0.4% | 3.6 ± 1.0 fold | 31.1 ± 0.6% | 8.0 ± 3.1 fold | converted into agonists | 3.7 ± 0.6 | 203 to 205 °C | no significant displacement | 9.2 ± 12.8% | 11.3 ± 3.1 fold | 0.0 ± 0.0 | dramatic slowing of desensitisation | caused recovery from desensitisation | 10.4 ± 7.5% | no desensitisation was observed | 250 ± 71 fold | nH (Hill coefficient) ([5]; α7 M260L, mean ± SEM): 1.8 ± 0.3; EC50 ([5]; α7 M260L, mean ± SEM, read-out: EC50 (agonist)): 8.9 ± 2.5 µM; Response on reactivation of desensitised receptors relative to response to 100 μM acetylcholine [8, 11]: 3.2 ± 0.9 fold |
| NS(=O)(=O)c1ccc(-n2nc(-c3ccc(Br)cc3)nc2CCc2ccccc2)cc1 [TBS-556, 4-(3-(4-bromophenyl)-5-phenethyl-1H-1,2,4-triazol-1-yl)benzenesulfonamide] |  |  |  | 3.2 ± 0.9% | 4.3 ± 0.6 fold | 16 ± 13% | 6.6 ± 1.0 fold | converted into agonists |  | 184 to 186 °C | no significant displacement | 1.0 ± 1.0% | 4.7 ± 0.2 fold |  | intermediate between those of classical type I and type II PAMs | caused recovery from desensitisation | 10 ± 1.9% | no desensitisation was observed | 27 ± 6 fold | Response on reactivation of desensitised receptors as % of the response to 100 μM acetylcholine [8, 11]: 57.3 ± 10.1% |
